The subject of one data set is MDA-MB-231. Description: MTT antiproliferation assay in MDA-MB-231 cells. In kind it is cell-based. The conditions noted are these: Homo sapiens, concentration that limits growth by 50%, 72 hour incubation, mean ± SD, at least two experiments in duplicate. As for the experimental part: (§1) The newly synthesized selectively mono-N-acylated compounds of series 4 and series 7 were evaluated as potential anticancer agents because compound 1 had been previously shown to display anticancer activity by inhibiting DHFR (Kuyper L F et al, J Med Chem 39, 892-903 (1996); incorporated by reference herein). Compounds of series 2 were not evaluated due to their poor solubility in DMSO. Two triple negative breast cancer (TN BC) cell lines (MDA-MB-231 and MDAMB-468) were selected to evaluate potential anticancer activity of the compounds of series 4 and series 7 by an MTT assay (Li B X et al, Bioorg Med Chem 20, 6811-6820 (2012); incorporated by reference herein.) TNBC represents a unique subtype of breast cancer clinically characterized by the lack of expression of estrogen receptor (ER), progesterone receptor (PR) and human epidermal growth factor receptor 2 (HER2). Subjects with triple negative breast cancer often have a poor prognosis (Kang S P et al, Curr Opin Obstet Gynecol 20, 40-46 (2008) and The Cancer Genome Atlas Network Nature, 490, 61-70 (2012); both of which are incorporated by reference herein). Current treatment options for TNBC are limited and novel agents are needed (Shastry M and Yardley D A, Curr Opin Obstet Gynecol 25, 40-48 (2013); incorporated by reference herein).
(§2) GI50 values represent the concentration that limits the growth of the cancer cells by 50% during a 72 hour incubation period. These are presented as mean±standard deviation of the mean of at least two independent experiments performed in duplicate.
(§3) TMTT assays for MDA-MB-231, MDA-MB-468 and HMEC were performed as described in Li et al, 2012 supra.
Background: Formazan colour is commonly taken as a measure of viable cells.

The next data set concerns MDA-MB-468. Description: MTT antiproliferation assay in MDA-MB-468 cells. The conditions noted are these: Homo sapiens, concentration that limits growth by 50%, 72 hour incubation, mean ± SD, at least two experiments in duplicate. In kind it is cell-based. As for the experimental part:
as §1, §2, §3

Data set [1] is described as follows: Stability in HPLC mobile phase containing TFA. The data set is classed as physicochemical. As to conditions: HPLC mobile phase water/acetonitrile with 0.1% TFA. As for the experimental part:
The solvents used for each reaction were purified from the Glass Contout solvent purification system. Melting points were determined in capillary tubes using MeI-Temp and are uncorrected. NMR spectra were recorded at 400 MHz (^1H NMR) and 100 MHz (^13C NMR). Chemical shifts (δ) are reported in ppm relative to the residual CHCl3 (1H, 7.26 ppm, 13C, 77.0 ppm) or DMSO (1H, 2.50 ppm, 13C, 39.5 ppm). The following abbreviations were used to describe the splitting pattern of individual peaks if applicable: s=singlet, d=doublet, t=triplet, q=quartet, m=multiplet. The coupling constants (J) were reported in Hertz (Hz). Silica gel flash chromatography was performed using 230-400 mesh silica gel (EMD). The mass spectra were obtained from an LTQ Orbitrap Discovery mass spectrometer (Thermo Scientific, West Palm Beach, Fla.) with electrospray operated either in positive or negative mode. All final compounds were confirmed to be of >95% purity based on HPLC (Waters) analysis using an XBridge C18 column (4.6×150 mm) and detected at 254 nm (due to the poor solubility, compound 2a-2d were not evaluated by HPLC). The mobile phases for HPLC are water and acetonitrile, both of which contain 0.1% TFA (for compounds 2e, 4e, and 7e which contain a TBS group, 0.01% TFA was used due to instability of these compounds in 0.1% TFA).

Data set [2] relates to normal human mammary epithelial cells (HMEC). Description: MTT viability assay in normal human mammary epithelial cells. In kind it is cell-based. As for the experimental part: FIG. 2 is a plot showing the effect of compound 7f on normal human mammary epithelial cells (HMEC.) HMEC were treated with the indicated concentrations of doxorubicin or 7f for 24 or 72 hours as indicated. Cells treated for 24 hours were further incubated in drug free media for 48 hours. The number of viable cells was determined by an MTT assay.
as §3

The target of a further data set is T1, human DHFR (Homo sapiens, UniProt P00374).
T1 construct: purchased Sigma
T1 sequence (P00374 1-187): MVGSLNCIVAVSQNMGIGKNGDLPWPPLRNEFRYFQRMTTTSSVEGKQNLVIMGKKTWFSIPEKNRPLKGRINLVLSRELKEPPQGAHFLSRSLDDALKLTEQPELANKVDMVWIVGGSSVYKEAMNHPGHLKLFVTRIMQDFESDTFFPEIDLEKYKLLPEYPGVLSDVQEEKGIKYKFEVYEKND
Description: In vitro human DHFR inhibition. The data set is classed as biochemical. The conditions noted are these: DHFR assay kit, NADPH 60 μM, DHF 50 μM. As for the experimental part:
The human DHFR assay was done with DHFR assay kit (Sigma) following the manufacturer's instructions with minor modifications. Different concentrations of a test compound were incubated with human DHFR (0.1875 mU) and NADPH (60 μM) in the 1× assay buffer for 2 min at room temperature. Then DHF (50 μM) was added to initiate the reduction reaction, which was immediately monitored by absorbance at 340 nm every 12 s for 3 min. The final reaction volume was 100 μL and the final DMSO concentration was 1%. The reaction velocities were calculated as the slopes from the absorbance-time curves.

Data set [3] concerns CREB-mediated gene transcription. Description: CREB reporter assay (CRE-RLuc) in HEK 293T cells. In kind it is cell-based, human. The conditions noted are these: forskolin 10 μM. As for the experimental part:
FIG. 4 is a plot showing the activity of compound 7f on CREB mediated gene transcription in HEK 293T cells. HEK 293T cells were transfected with a CREB renilla luciferase reporter (CRE-RLuc). Then the cells were treated with increasing concentrations of 7f for 30 min before the addition of forskolin at a final concentration of 10 μM. The cells were further incubated for 5 hours before cell lysis and renilla luciferase activity measurement. The renilla luciferase activity was normalized to the protein concentration of the cell lysates and was expressed as relative luciferase unit (RLU)/μg of proteins.
Inhibition of CREB mediated transcription in HEK 293T cells by a CREB reporter assay was performed as described in Li and Xiao, 2009 supra.

In the next data set the test system is LMNA/C. Description: Chemoproteomic pulldown with probe 10 and Western blot, LMNA/C. In kind it is binding, human. The conditions noted are these: MDA-MB-468 cells, photocrosslinking, streptavidin pulldown, Western blot. As for the experimental part:
(§4) FIG. 5A is a schematic diagram of chemoproteomics experiments described in Example 38 below. MDA-MB-468 cells were treated with probe 10 with or without compound 7f. Then the cells were irradiated by UV followed by cell lysis. The lysates were clicked with a biotin-N3. The biotinylated proteins were pulled down with streptavidin beads. The bound proteins were trypsin-digested for LC-MS/MS analysis or eluted for Western analysis.
(§5) FIG. 5B is an image of a Western blot showing that 7f binds LMNA and LMNB1. The proteins from streptavidin-pulldown prepared as shown in FIG. 5A were subjected to Western blot with antibodies specific for the proteins indicated by the arrows to the right of the figure.
(§6) Unbiased chemical proteomics experiments involving photocrosslinking MDA-MB-468 cells treated with probe compound 10, clicking with a biotin-azide (biotin-N3), streptavidin pulldown and mass spectroscopic analyses identified nuclear lamins as the molecular targets of 7f. Nuclear lamins are type V intermediate filament proteins. In humans, there are three lamin genes (LMNA, LMNB1 and LMNB2) encoding four major proteins: LMNA, LMNC, LMNB1 and LMNB2. To further confirm that lamins are the targets, the biotinylated proteins prepared as shown in FIG. 5A were pulled down and analyzed by Western blot with individual antibodies (FIG. 5B).
(In general: A western blot detects proteins with antibodies after separation by electrophoresis.)

A further data set concerns the target T2, LMNB1 (Homo sapiens, UniProt P20700).
T2 construct: endogenous in cells; host or cells: MDA-MB-468
T2 sequence (P20700 1-586): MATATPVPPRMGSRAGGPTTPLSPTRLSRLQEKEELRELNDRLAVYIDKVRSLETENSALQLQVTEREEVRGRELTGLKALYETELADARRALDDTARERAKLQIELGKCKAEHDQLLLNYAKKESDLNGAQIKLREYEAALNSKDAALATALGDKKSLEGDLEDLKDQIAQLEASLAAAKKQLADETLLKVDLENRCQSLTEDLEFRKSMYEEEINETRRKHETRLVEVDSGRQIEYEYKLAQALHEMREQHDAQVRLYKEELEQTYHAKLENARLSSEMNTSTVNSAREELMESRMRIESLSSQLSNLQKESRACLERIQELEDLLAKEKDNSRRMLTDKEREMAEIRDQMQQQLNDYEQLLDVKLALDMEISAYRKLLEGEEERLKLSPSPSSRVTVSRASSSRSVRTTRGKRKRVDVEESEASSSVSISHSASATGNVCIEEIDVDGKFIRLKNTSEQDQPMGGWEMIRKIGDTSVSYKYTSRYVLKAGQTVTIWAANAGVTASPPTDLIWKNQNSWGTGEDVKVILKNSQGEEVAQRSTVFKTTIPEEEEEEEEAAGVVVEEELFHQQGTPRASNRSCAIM
Put plainly: Chemoproteomic pulldown with probe 10 and Western blot, LMNB1. The conditions noted are these: MDA-MB-468 cells, photocrosslinking, streptavidin pulldown, Western blot. In kind it is binding. As for the experimental part: as §4, §5, §6

What is called GI50 is the concentration that inhibits growth by half. Higher therefore signals less potent growth inhibition. What is called melting point is the temperature of the solid-liquid transition. `CC(C)(C)[Si](C)(C)OCCCCC(=O)Nc1nc(N)nc2ccc3[nH]ccc3c12` [Compound 4e] yielded a melting point of 172 to 174 °C. Besides, the GI50 in the data set on MDA-MB-231 stood at 15600 ± 7660 nM. Also, in the data set with MDA-MB-468, the GI50 is 11100 ± 1730 nM. In data set [1], the “stability in 0.1% TFA” value was “instability”.
Compound `Nc1nc(NC(=O)c2ccc3ccccc3c2)nc2ccc3[nH]ccc3c12` [Compound 7f] came in with a melting point of 234 to 236 °C. This compound gave a GI50 in the data set on MDA-MB-231 of 1600 nM. In the data set with MDA-MB-468, this compound came in with a GI50 of 440 nM. The “concentration up to which not toxic to normal HMEC” value in data set [2] (72-h incubation) is at least 5000 nM. For the same compound, the “concentration up to which human DHFR is not inhibited” value at human DHFR is at least 10 µM. In [3], the “concentration up to which CREB-mediated gene transcription is not inhibited” value was at least 10 µM. Besides, in the data set on LMNA/C, the “competition of probe 10 pulldown of LMNA/C” value was “competed”. For the same compound, the “competition of probe 10 pulldown of LMNB1” value on LMNB1 is “competed”.
As to `COc1cccc2c1C(=O)c1c(O)c3c(c(O)c1C2=O)C[C@@](O)(C(=O)CO)C[C@@H]3O[C@H]1C[C@H](N)[C@H](O)[C@H](C)O1` [Dox, doxorubicin, reference compound], it took 120 nM to inhibit growth in the data set with MDA-MB-468 by half (GI50). Further, in data set [2] (toxic at a concentration as low as), the “concentration toxic to normal HMEC cells” value is at most 100 nM.
Compound `CC(C)(C)[Si](C)(C)OCCCCC(=O)n1ccc2c3c(N)nc(N)nc3ccc21` [Compound 2e] displayed a melting point of 173 to 175 °C. The “stability in 0.1% TFA” value in data set [1] was “instability”.
Compound `CC(C)(C)[Si](C)(C)OCCCCC(=O)Nc1nc(N)c2c(ccc3[nH]ccc32)n1` [Compound 7e] displayed a melting point of 140 to 142 °C. In the data set on MDA-MB-231, this compound came in with a concentration for 50% growth inhibition (GI50) of 2430 ± 130 nM. Also, growth in the data set on MDA-MB-468 was halved (GI50) at 2240 ± 400 nM. Besides, the “stability in 0.1% TFA” value in data set [1] was “instability”.

(Values after US9133203B2, “Pyrroloquinazoline compounds” (OREGON HEALTH & SCIENCE UNIVERSITY, priority 2013, dated 2015).)
